Read-outs that look alike come from different tables or passages of the source. Positions of bridges follow the written chain, without caps; N, C: chain ends. Non-standard residues stand in square brackets, D forms with d. Residues, ends and D or L forms follow the SMILES beside them. ξ: configuration not given here. *: point of attachment. Phe(F5) = N[C@@H](Cc1c(F)c(F)c(F)c(F)c1F)C(=O)O; Tyr(3-Br) = N[C@@H](Cc1ccc(O)c(Br)c1)C(=O)O; Cyclopentanecarbonyl = O=C(C1CCCC1)*; Bta = N[C@@H](Cc1csc2ccccc12)C(=O)O; cisHyp = O=C(O)[C@@H]1C[C@H](O)CN1; Hyp = O=C(O)[C@@H]1C[C@@H](O)CN1; NMeF = CN[C@@H](Cc1ccccc1)C(=O)O; dNMeNle = CCCC[C@@H](NC)C(=O)O; NMeNle = CCCC[C@H](NC)C(=O)O; NMeA = CN[C@@H](C)C(=O)O; Orn = NCCC[C@H](N)C(=O)O; dDap = NC[C@@H](N)C(=O)O; Dab = NCC[C@H](N)C(=O)O; Dap = NC[C@H](N)C(=O)O; ξP = O=C(O)C1CCCN1; Sar = CNCC(=O)O
Tests used:
[1] = biological target: T1, LK35.2-hPD-L1 cells / PE-labeled PD-1-Ig (Homo sapiens, UniProt Q9NZQ7); assay: LK35.2-hPD-L1 cell binding high-content screening assay; type: cell-based
T1 construct: expressed in transfected cells; host or cells: LK35.2 mouse B cell line
Experimental: LK35.2-hPD-L1 Cell Binding High-Content Screening Assay. Phycoerythrin (PE) was covalently linked to the Ig epitope tag of human PD-1-Ig and fluorescently-labeled PD-1-Ig was used for binding studies with a mouse B cell line (LK35.2) stably over-expressing human PD-L1 (LK35.2-hPD-L1). Briefly, 3×10^3 LK35.2-hPD-L1 cells were seeded into 384 well plates in 20 ul of RPMI supplemented with 10% fetal calf serum and cultured overnight. 125 nl of compound was added to cells, followed by 5 ul of PE-labeled PD-1-Ig (1 nM final), diluted in RPMI supplemented with 10% fetal calf serum, followed by incubation at 37° C. for 1 h. […] Cells were washed 3× in 100 ul of dPBS followed by final addition of 15 ul of dPBS. Data was collected and processed using a Cell Insight NXT High Content Imager and associated software.

Human PD-L1/PD-1 = biological target: T2, Human PD-L1/PD-1 (Homo sapiens, UniProt Q9NZQ7); assay: HTRF PD-1-Ig/PD-L1-His binding assay (human PD-L1)
T2 construct: made in house; host or cells: HEK293T
Procedure, shortened: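 Soluble PD-1-Ig binding to PD-L1-His measured by HTRF in dPBS with 0.1% BSA and 0.05% Tween-20. Detection used europium cryptate anti-Ig antibody (1 nM final) and APC anti-His antibody (20 nM final) added on top of the binding reaction.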

[2] = cluster symbol, cell line of CBA not given (LK35.2-hPD-L1 or 293T-hPD-L1), read-out: CBA IC50 cluster
[3] = cluster symbol, read-out: HTRF IC50 cluster
[4] = cell binding assay, cell line not given, cluster symbol, read-out: CBA IC50 cluster

T2 sequence (Q9NZQ7 with tags, fused parts or gaps): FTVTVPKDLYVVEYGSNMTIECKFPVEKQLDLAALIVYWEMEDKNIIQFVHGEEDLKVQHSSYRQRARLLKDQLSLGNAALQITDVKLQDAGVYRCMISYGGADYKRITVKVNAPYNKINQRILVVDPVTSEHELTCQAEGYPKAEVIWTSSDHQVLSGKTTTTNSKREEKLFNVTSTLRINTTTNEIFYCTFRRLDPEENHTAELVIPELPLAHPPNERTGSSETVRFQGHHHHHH
T1 sequence (Q9NZQ7 19-290): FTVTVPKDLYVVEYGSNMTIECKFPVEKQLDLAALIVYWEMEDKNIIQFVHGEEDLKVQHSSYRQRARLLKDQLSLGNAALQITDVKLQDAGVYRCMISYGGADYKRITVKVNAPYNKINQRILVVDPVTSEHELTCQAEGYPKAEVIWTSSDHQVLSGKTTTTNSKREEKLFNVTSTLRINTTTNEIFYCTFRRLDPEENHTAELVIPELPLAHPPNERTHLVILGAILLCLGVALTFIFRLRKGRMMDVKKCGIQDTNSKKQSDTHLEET

| Structure (SMILES) | IC50 [1, 2] [nM] | IC50 (Human PD-L1/PD-1; [3]) [nM] | IC50 [1, 4] [nM] | IC50 ([1]; cell line of CBA not given (LK35.2-hPD-L1 or 293T-hPD-L1), read-out: CBA IC50 value) [nM] | IC50 (Human PD-L1/PD-1; read-out: HTRF IC50 value) [nM] |
| --- | --- | --- | --- | --- | --- |
| CCCC[C@H]1C(=O)N(C)[C@@H](CCCC)C(=O)N[C@@H](CCCNC(=N)N)C(=O)N[C@H](C(=O)NCC(N)=O)CSCC(=O)N[C@@H](Cc2ccc(O)cc2)C(=O)N(C)[C@@H](C)C(=O)N[C@@H](CC(N)=O)C(=O)N2CCC[C@H]2C(=O)N[C@@H](CN)C(=O)N[C@@H](CCC(=O)O)C(=O)N2C[C@H](O)C[C@H]2C(=O)N[C@@H](Cc2c[nH]c3ccccc23)C(=O)N[C@@H](CO)C(=O)N[C@@H](Cc2csc3ccccc23)C(=O)N1C [Example 1128] ({CH2CO}-Y[NMeA]NP[Dap]E[Hyp]WS[Bta][NMeNle][NMeNle]RCG-NH2; thioether N-14) | 0.158 to 4.71 | 6.76 to 30.3 |  |  |  |
| CCCC[C@H]1C(=O)N(C)[C@@H](CCCC)C(=O)N[C@@H](CO)C(=O)N[C@H](C(=O)NCC(N)=O)CSCC(=O)N[C@@H](Cc2ccc(O)cc2)C(=O)N(C)[C@@H](C)C(=O)N[C@@H](CC(N)=O)C(=O)N2CCC[C@H]2C(=O)N[C@@H](CO)C(=O)N[C@@H](CCC(N)=O)C(=O)N2C[C@H](O)C[C@H]2C(=O)N[C@@H](Cc2c[nH]c3ccccc23)C(=O)N[C@@H](CO)C(=O)N[C@@H](Cc2c[nH]c3ccccc23)C(=O)N1C [Example 5128] ({CH2CO}-Y[NMeA]NPSQ[Hyp]WSW[NMeNle][NMeNle]SCG-NH2; thioether N-14) |  | 0.385 to 6.74 | 0.158 to 4.71 |  |  |
| CCCC[C@@H]1C(=O)N(C)[C@H](CCCC)C(=O)N[C@@H](CCCN)C(=O)N[C@@H](C(=O)NCC(N)=O)CSCC(=O)N[C@@H](Cc2ccc(O)cc2)C(=O)N2CCCC2C(=O)N[C@H](CC(=O)O)C(=O)N2CCC[C@H]2C(=O)N[C@H](CN)C(=O)N[C@@H](CCC(=O)O)C(=O)N2CCCC2C(=O)N[C@H](Cc2c[nH]c3ccccc23)C(=O)N[C@@H](CCN)C(=O)N[C@@H](Cc2c[nH]c3ccccc23)C(=O)N1C (some centres unmarked) [Example 1214] ({CH2CO}-Y[ξP][dD]P[dDap]E[ξP][dW][Dab]W[dNMeNle][dNMeNle][Orn][dC]G-NH2; thioether N-14) | 4.78 to 72.9 | 6.76 to 30.3 |  |  |  |
| CCCC[C@H]1C(=O)N(C)CC(=O)N[C@@H](CC(=O)O)C(=O)N[C@@H](C(C)C)C(=O)N(C)[C@@H](Cc2ccc(O)cc2)C(=O)N[C@@H](Cc2ccc(O)cc2)C(=O)N(C)CC(=O)N[C@@H](Cc2c[nH]c3ccccc23)C(=O)N[C@@H](Cc2ccc(O)cc2)C(=O)N[C@@H](CC(C)C)C(=O)N[C@H](C(=O)NCC(N)=O)CSCC(=O)N[C@@H](Cc2ccccc2)C(=O)N(C)[C@@H](Cc2ccccc2)C(=O)N1C [Example 3168] (HELM PEPTIDE1{[O=C(C[*:3])[*:2]].F.[meF].[CCCC[C@@H](C(=O)[*:2])N(C)[*:1]].[Sar].D.V.[meY].Y.[Sar].W.Y.L.C.G.[am]}$PEPTIDE1,PEPTIDE1,1:R3-14:R3$$$V2.0) | > 74.3 | > 30.5 |  |  |  |
| CCCC[C@H]1C(=O)N[C@@H](CCCNC(=N)N)C(=O)N[C@H](C(=O)NCC(N)=O)CSCC(=O)N[C@@H](Cc2ccccc2)C(=O)N(C)[C@@H](C)C(=O)N[C@@H](CC(N)=O)C(=O)N2CCC[C@H]2C(=O)N[C@@H](Cc2cnc[nH]2)C(=O)N[C@@H](CC(C)C)C(=O)N(C)CC(=O)N[C@@H](Cc2c[nH]c3ccccc23)C(=O)N[C@@H](CO)C(=O)N[C@@H](Cc2c[nH]c3ccccc23)C(=O)N[C@@H](CNC(=O)C2CCCC2)C(=O)N1C [Example 1012] ({CH2CO}-F[NMeA]NPHL[Sar]WSW[Dap](Cyclopentanecarbonyl)[NMeNle]RCG-NH2; thioether N-14) | > 74.3 | > 30.5 |  |  |  |
| CCCC[C@H]1C(=O)N(C)[C@@H](CCCC)C(=O)N[C@@H](CC(=O)O)C(=O)N[C@H](C(=O)NCC(N)=O)CSCC(=O)N[C@@H](Cc2ccc(O)cc2)C(=O)N(C)[C@@H](C)C(=O)N[C@@H](CC(=O)O)C(=O)N2CCC[C@H]2C(=O)N[C@@H](Cc2c[nH]cn2)C(=O)N[C@@H](CCCCN)C(=O)N2C[C@H](O)C[C@H]2C(=O)N[C@@H](Cc2c[nH]c3ccccc23)C(=O)N[C@@H](CCCCN)C(=O)N[C@@H](Cc2c[nH]c3ccccc23)C(=O)N1C [Example 5096] ({CH2CO}-Y[NMeA]DPHK[Hyp]WKW[NMeNle][NMeNle]DCG-NH2; thioether N-14) |  | 0.385 to 6.74 | 0.158 to 4.71 |  |  |

Continued, values first:

| IC50 [1, 2] [nM] | IC50 (Human PD-L1/PD-1; [3]) [nM] | IC50 [1, 4] [nM] | IC50 ([1]; cell line of CBA not given (LK35.2-hPD-L1 or 293T-hPD-L1), read-out: CBA IC50 value) [nM] | IC50 (Human PD-L1/PD-1; read-out: HTRF IC50 value) [nM] | Structure (SMILES) |
| --- | --- | --- | --- | --- | --- |
|  | 0.385 to 6.74 | 4.78 to 72.9 |  |  | CCCC[C@H]1C(=O)N(C)[C@@H](CCCC)C(=O)N[C@@H](CCN)C(=O)N[C@H](C(=O)NCC(N)=O)CSCC(=O)N[C@@H](Cc2ccc(O)c(Br)c2)C(=O)N(C)[C@@H](C)C(=O)N[C@@H](CC(N)=O)C(=O)N2CCC[C@H]2C(=O)N[C@@H](Cc2cnc[nH]2)C(=O)N[C@@H](CC(C)C)C(=O)N(C)CC(=O)N[C@@H](Cc2c[nH]c3ccccc23)C(=O)N[C@@H](CCN)C(=O)N[C@@H](Cc2c[nH]c3ccccc23)C(=O)N1C [Example 6043] ({CH2CO}-[Tyr(3-Br)][NMeA]NPHL[Sar]W[Dab]W[NMeNle][NMeNle][Dab]CG-NH2; thioether N-14) |
| > 74.3 | > 30.5 |  |  |  | CCCC[C@H]1C(=O)N(C)CC(=O)N[C@@H](CC(=O)O)C(=O)N[C@@H](C(C)C)C(=O)N(C)[C@@H](Cc2ccccc2)C(=O)N[C@@H](Cc2ccc(O)cc2)C(=O)N(C)CC(=O)N[C@@H](Cc2c[nH]c3ccccc23)C(=O)N[C@@H](Cc2ccc(O)cc2)C(=O)N[C@@H](CC(C)C)C(=O)N[C@H](C(=O)NCC(N)=O)CSCC(=O)N[C@@H](Cc2c(F)c(F)c(F)c(F)c2F)C(=O)N(C)[C@@H](Cc2ccccc2)C(=O)N1C [Example 3078] ({CH2CO}-[Phe(F5)][NMeF][NMeNle][Sar]DV[NMeF]Y[Sar]WYLCG-NH2; thioether N-13) |
|  |  |  | 8.86 | 30.3 | CCCC[C@H]1C(=O)N(C)CC(=O)N[C@@H](CC(=O)O)C(=O)N[C@@H]([C@@H](C)CC)C(=O)N(C)[C@@H](Cc2ccccc2)C(=O)N[C@@H](Cc2ccc(O)cc2)C(=O)N(C)CC(=O)N[C@@H](Cc2c[nH]c3ccccc23)C(=O)N[C@@H](Cc2ccc(O)cc2)C(=O)N[C@@H](CC(C)C)C(=O)N[C@H](C(=O)NCC(N)=O)CSCC(=O)N[C@@H](Cc2ccccc2)C(=O)N(C)[C@@H](Cc2ccccc2)C(=O)N1C [Example 3149] (HELM PEPTIDE1{[O=C(C[*:3])[*:2]].F.[meF].[CCCC[C@@H](C(=O)[*:2])N(C)[*:1]].[Sar].D.I.[meF].Y.[Sar].W.Y.L.C.G.[am]}$PEPTIDE1,PEPTIDE1,1:R3-14:R3$$$V2.0) |
|  | 0.385 to 6.74 | 0.158 to 4.71 |  |  | CCCC[C@H]1C(=O)N(C)[C@@H](CCCC)C(=O)N[C@@H](CC(C)C)C(=O)N[C@H](C(=O)NCC(N)=O)CSCC(=O)N[C@@H](Cc2ccc(O)cc2)C(=O)N(C)[C@@H](C)C(=O)N[C@@H](CC(N)=O)C(=O)N2CCC[C@H]2C(=O)N[C@@H](CN)C(=O)N[C@@H](CC(C)C)C(=O)N2C[C@H](O)C[C@H]2C(=O)N[C@@H](Cc2c[nH]c3ccccc23)C(=O)N[C@@H](CO)C(=O)N[C@@H](Cc2c[nH]c3ccccc23)C(=O)N1C [Example 5070] ({CH2CO}-Y[NMeA]NP[Dap]L[Hyp]WSW[NMeNle][NMeNle]LCG-NH2; thioether N-14) |
| > 74.3 | > 30.5 |  |  |  | CCCC[C@H]1C(=O)N(C)CC(=O)N[C@@H](CC(=O)O)C(=O)N[C@@H](C(C)C)C(=O)N(C)[C@@H](Cc2ccccc2)C(=O)N[C@@H](Cc2ccc(O)cc2)C(=O)N(C)CC(=O)N[C@@H](Cc2c[nH]c3ccccc23)C(=O)N[C@@H](Cc2ccc(O)cc2)C(=O)N[C@@H](CC(C)C)C(=O)N[C@H](C(=O)NCC(N)=O)CSCC(=O)N[C@@H](Cc2c[nH]c3ccccc23)C(=O)N(C)[C@@H](Cc2ccccc2)C(=O)N1C [Example 3090] (HELM PEPTIDE1{[O=C(C[*:3])[*:2]].W.[meF].[CCCC[C@@H](C(=O)[*:2])N(C)[*:1]].[Sar].D.V.[meF].Y.[Sar].W.Y.L.C.G.[am]}$PEPTIDE1,PEPTIDE1,1:R3-14:R3$$$V2.0) |
|  | 0.385 to 6.74 | 4.78 to 72.9 |  |  | CCCC[C@H]1C(=O)N(C)[C@@H](CCCC)C(=O)NCC(=O)N[C@H](C(=O)NCC(N)=O)CSCC(=O)N[C@@H](Cc2ccc(O)cc2)C(=O)N(C)[C@@H](C)C(=O)N[C@@H](CC(N)=O)C(=O)N2CCC[C@H]2C(=O)N[C@@H](Cc2c[nH]cn2)C(=O)N[C@@H](CCC(N)=O)C(=O)N2C[C@H](O)C[C@H]2C(=O)N[C@@H](Cc2c[nH]c3ccccc23)C(=O)N[C@@H](CO)C(=O)N[C@@H](Cc2c[nH]c3ccccc23)C(=O)N1C [Example 5125] ({CH2CO}-Y[NMeA]NPHQ[Hyp]WSW[NMeNle][NMeNle]GCG-NH2; thioether N-14) |
| 0.158 to 4.71 | 6.76 to 30.3 |  |  |  | CCCC[C@H]1C(=O)N(C)[C@@H](CCCC)C(=O)N[C@@H](CCCN)C(=O)N[C@H](C(=O)NCC(N)=O)CSCC(=O)N[C@@H](Cc2ccc(O)cc2)C(=O)N(C)[C@@H](C)C(=O)N[C@@H](CC(N)=O)C(=O)N2CCC[C@H]2C(=O)N[C@@H](CN)C(=O)N[C@@H](CC(C)C)C(=O)N2C[C@@H](O)C[C@H]2C(=O)N[C@@H](Cc2c[nH]c3ccccc23)C(=O)N[C@@H](CO)C(=O)N[C@@H](Cc2c[nH]c3ccccc23)C(=O)N1C [Example 1145] ({CH2CO}-Y[NMeA]NP[Dap]L[cisHyp]WSW[NMeNle][NMeNle][Orn]CG-NH2; thioether N-14) |
